From patent publication US11987569B2, “Substituted imidazoquinolines as agonists of TLR7” (BIONTECH SE, priority 2017, dated 2024)
Like-named read-outs stand apart in the source and are kept apart here.

Tests used:
[1] = test system: human PBMCs; assay: IFN-α induction assay: IFN-α induction by TLR agonists in human PBMCs (Luminex); format: cell-based; details: 24 h incubation; for minimal effective concentration: PBMC; for Minimum effective concentration IFN-α release: Table 2
Description: IFN-α Induction Assay—IFN-α Induction by TLR Agonists in Human PBMCs
Materials and Devices: Bio Plex 200 Luminex device, and BioPlex Manager software; MultiScreen Filter Plates (Millipore, MABVN1250); low binding reaction vials 1.5 ml (Sarstedt, 72.706.600); Activation Buffer: 0.1M Na-dihydrogen phosphate, 0.1M Di-Na hydrogen phosphate pH 6.2; Sulfo-NHS (N-hydroxysulfosuccinimide) solution: 50 mg/ml in water (freshly prepared); EDC solution: 50 mg/ml in water (freshly prepared); Coupling Buffer: PBS; Washing Buffer: PBS+0.05% Tween20; Blocking Buffer: PBS+10 mg/ml BSA+0.05% sodium azide; Assay Buffer: PBS+10 mg/ml BSA;
In each well of a 96-well U-bottom plate 200,000 PBMCs were pre-incubated in medium (RPMI1640−Gibco #61870-044÷10% FBS+1% L-glutamine) for 5 hours at 37° C. and 5% CO2 before the compounds of the present invention or controls were added, respectively. Upon addition of compounds of the present invention or controls, the cells are incubated for another 24 h at 37° C. and 5% Co2.
Luminex assay, Step 1: Coupling of antibody to beads: • transfer a suspension (beads are stored in buffer as provided by manufacturer) of about 5 million MicroPlex Microspheres (=beads) into a low binding reaction vial • centrifuge bead suspension for 1 min at 10,000 g, discard supernatant and resuspend pellet in 160 μl Activation Buffer, repeat once • add 20 μl Sulfo-NHS solution and 20 μl EDC solution, vortex • incubate for 20 min in the absence of light • centrifuge bead suspension for 1 min at 10,000 g, discard supernatant and resuspend pellet in 500 μl Coupling Buffer, repeat once • add capture antibody (CaptureAK eBioscience #BMS160, 5 μg per 1 Mio beads) • incubate 2 h at RT in the absence of light while swaying • centrifuge bead suspension for 1 min at 10,000 g, discard supernatant and resuspend pellet in 500 μl Washing Buffer, repeat once • centrifuge bead suspension for 1 min at 10,000 g, discard supernatant and resuspend pellet in 100 μl Blocking Buffer
Luminex Assay, Step 2: Measurement • add 100 μl Assay Buffer into each filter plate well (seal any unused wells with adhesive tape), then remove buffer • add about 2,000 beads per well per analyte (per analyte, a different bead type with distinct fluorescence color is used), suspended in 50 μL of Assay Buffer • remove buffer and wash twice with 100 μl Washing Buffer per well • per well, add 50 μl sample solution from the (pre-)incubation step (cell supernatant), or Standard (IFN-α standard eBioscience #BMS216MST—concentration gradient, highest standard concentration 2500 pg/ml) or Assay Buffer (as blanks) • shake plate • incubate plate for 2 h at RT in the absence of light, while swaying the plate • wash three times with 100 μl Washing Buffer per well • add 25 μl antibody detection mix (DetectionAK eBioscience #BMS1016BT diluted 1:1000) in Assay Buffer per well, then vortex plate • incubate plate for 1 h at RT in the absence of light, while swaying the plate • wash three times with 100 μl Washing Buffer per well • add 50 μl Streptavidin/PE (diluted 1:200 in Assay Buffer) per well, then vortex plate • incubate plate for 10 min at RT in the absence of light, while swaying the plate • wash three times with 100 μl Washing Buffer per well • add 100 μl Assay Buffer per well, then vortex plate • start Luminex measurement according to manufacturer's instructions, measuring at least 50 beads per well per analyte
The compounds were tested at 8 different concentrations (1 μM, 0.3 μM, 0.1 μM, 0.03 μM, 0.01 μM 0.003 μM, 0.001 μM, 0.0003 μM) using a half-logarithmic dilution. The release of Interferon-alpha (IFN-α) presents a bell-shaped distribution within the dilution window. The minimum effective concentration (MEC) is the lowest concentration required to induce the desired IFN-α release. It represents the outset of the bell-shaped distribution and is given in nM. […]

[2] = test system: IFN-α secretion; assay: In vivo profiling: plasma IFN-α after single intravenous infusion in cynomolgus monkeys (ELISA); details: cynomolgus monkey, 30 min i.v. infusion
Description: In the following studies, a compound according to the invention was examined in an in vivo cynomolgus monkey model. It is evaluated whether and at which applied dose the compounds cause secretion of IFN-α.
In particular, a defined single dose of test compound was applied intravenously to cynomolgus monkeys by a thirty minute infusion. At several time points after initiation of the intravenous compound application, blood samples (0.5 mL for approximately 0.25 mL plasma) were collected from the vena cephalica antebrachii or vena saphena into K3EDTA tubes from the animals. Blood samples were stored on crushed ice prior to centrifugation. Plasma was obtained by centrifugation at 4° C. and approximately 1800 g for 10 minutes and was aliquoted into labeled micro tubes and stored frozen at −70° C. or below. Plasma samples were thawed, diluted and used for determination of IFN-α levels using an IFN-α Elisa Kit (e.g. VeriKine™ Cynomolgus/Rhesus IFN-α ELISA Kit) according to the manufacturer's instructions.

[3] = test system: superficial basal cell carcinomas; details: marketed as 5% cream (Aldara); cited from earlier work
[4] = comparative compounds, Table 2, read-out: Minimum effective concentration IFN-α release
[5] = lowest concentration inducing the desired IFN-α release, Table 1, read-out: Minimum effective concentration IFN-α release

| SMILES | minimal effective concentration [1, 4] [µM] | minimal effective concentration [1, 5] [µM] | further results |
| --- | --- | --- | --- |
| CCc1nc2c(N)nc3ccccc3c2n1CCCCN(C(C)=O)C1CCS(=O)(=O)C1 (stereo not drawn) [7′, N-[4-(4-amino-2-ethyl-1H-imidazo[4,5-c]quinolin-1-yl)butyl]-N-(1,1-dioxidotetrahydro-3-thienyl)acetamide, reference compound] | 0.3 | – | – |
| CCc1nc2c(N)nc3ccccc3c2n1CCCCN(C(=O)OC)C1CCS(=O)(=O)C1 (stereo not drawn) [8′, reference compound] | 0.1 | – | – |
| CCc1nc2c(N)nc3ccccc3c2n1CCCCN(C(N)=O)C1CCS(=O)(=O)C1 (stereo not drawn) [9′, reference compound] | 0.3 | – | – |
| CCNCc1nc2c(N)nc3ccccc3c2n1CCCCN(C(C)=O)C1CCS(=O)(=O)C1 (stereo not drawn) [10′, reference compound] | – | – | Minimum effective concentration IFN-α release ([1]; comparative compounds): inactive |
| CCNCc1nc2c(N)nc3ccccc3c2n1CCCCN(C(=O)OC)C1CCS(=O)(=O)C1 (stereo not drawn) [11′, reference compound] | – | – | Minimum effective concentration IFN-α release ([1]; comparative compounds): inactive |
| CCNCc1nc2c(N)nc3ccccc3c2n1CCCCN(C(N)=O)C1CCS(=O)(=O)C1 (stereo not drawn) [12′, reference compound] | 10 | – | – |
| COCCc1nc2c(N)nc3ccccc3c2n1CCCCN(C(C)=O)C1CCS(=O)(=O)C1 (stereo not drawn) [13′, reference compound] | 0.03 | – | – |
| COCCc1nc2c(N)nc3ccccc3c2n1CCCCN(C(=O)OC)C1CCS(=O)(=O)C1 (stereo not drawn) [14′, reference compound] | 0.01 | – | – |
| COCCc1nc2c(N)nc3ccccc3c2n1CCCCN(C(N)=O)C1CCS(=O)(=O)C1 (stereo not drawn) [15′, reference compound] | 0.1 | – | – |
| CCc1nc2c(N)nc3ccccc3c2n1CCCCN(C(C)=O)C1CS(=O)(=O)C1 [Example 7, N-(4-(4-Amino-2-ethyl-1H-imidazo[4,5-c]quinolin-1-yl)butyl)-N-(1,1-dioxidothietan-3-yl)acetamide] | – | 0.1 | peak plasma IFN-α concentration ([2]; single dose 0.3 mg/kg (smallest dose tested)): about 5000 pg/ml; peak plasma IFN-α concentration ([2]; single dose 10 mg/kg): about 30,000 pg/ml |
| CCc1nc2c(N)nc3ccccc3c2n1CCCCN(C(=O)OC)C1CS(=O)(=O)C1 [Example 8, Methyl (4-(4-amino-2-ethyl-1H-imidazo[4,5-c]quinolin-1-yl)butyl)(1,1-dioxidothietan-3-yl)carbamate] | – | 0.03 | – |
| CCc1nc2c(N)nc3ccccc3c2n1CCCCN(C(N)=O)C1CS(=O)(=O)C1 [Example 9, 1-(4-(4-Amino-2-ethyl-1H-imidazo[4,5-c]quinolin-1-yl)butyl)-1-(1,1-dioxidothietan-3-yl)urea] | – | 0.1 | – |
| CCNCc1nc2c(N)nc3ccccc3c2n1CCCCN(C(C)=O)C1CS(=O)(=O)C1 [Example 10, N-(4-(4-Amino-2-((ethylamino)methyl)-1H-imidazo[4,5-c]quinolin-1-yl)butyl)-N-(1,1-dioxidothietan-3-yl)acetamide] | – | 1 | – |
| CCNCc1nc2c(N)nc3ccccc3c2n1CCCCN(C(=O)OC)C1CS(=O)(=O)C1 [Example 11, Methyl (4-(4-amino-2-((ethylamino)methyl)-1H-imidazo[4,5-c]quinolin-1-yl)butyl)(1,1-dioxidothietan-3-yl)carbamate] | – | 0.1 | – |
| CCNCc1nc2c(N)nc3ccccc3c2n1CCCCN(C(N)=O)C1CS(=O)(=O)C1 [Example 12, 1-(4-(4-Amino-2-((ethylamino)methyl)-1H-imidazo[4,5-c]quinolin-1-yl)butyl)-1-(1,1-dioxidothietan-3-yl)urea] | – | 3 | – |
| COCCc1nc2c(N)nc3ccccc3c2n1CCCCN(C(C)=O)C1CS(=O)(=O)C1 [Example 13, N-(4-(4-Amino-2-(2-methoxyethyl)-1H-imidazo[4,5-c]quinolin-1-yl)butyl)-N-(1,1-dioxidothietan-3-yl)acetamide] | – | 0.01 | – |
| COCCc1nc2c(N)nc3ccccc3c2n1CCCCN(C(=O)OC)C1CS(=O)(=O)C1 [Example 14, Methyl (4-(4-amino-2-(2-methoxyethyl)-1H-imidazo[4,5-c]quinolin-1-yl)butyl)(1,1-dioxidothietan-3-yl)carbamate] | – | 0.001 | – |
| COCCc1nc2c(N)nc3ccccc3c2n1CCCCN(C(N)=O)C1CS(=O)(=O)C1 [Example 15, 1-(4-(4-Amino-2-(2-methoxyethyl)-1H-imidazo[4,5-c]quinolin-1-yl)butyl)-1-(1,1-dioxidothietan-3-yl)urea] | – | 0.02 | – |
| CC(C)Cn1cnc2c(N)nc3ccccc3c21 [Imiquimod, imiquimod] | – | – | 5-year clearance of superficial basal cell carcinomas [3]: approx. 80% |
